According to PubChem BioAssay (NCI):
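Values below derive from 48-hour exposures of cells grown in 96-well plates, with endpoints linearly interpolated between the two concentrations bracketing the appropriate inhibition level. TGI is the concentration that stops growth completely.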

Legend:
Assay in all cases: NCI anticancer screen, dose series, 48 h
A498 renal = system: A498 renal
SW-620 colon = system: SW-620 colon
CCRF-CEM leukemia = system: CCRF-CEM leukemia
SK-OV-3 ovarian = system: SK-OV-3 ovarian
OVCAR-3 ovarian = system: OVCAR-3 ovarian
IGROV1 ovarian = system: IGROV1 ovarian
MCF7 breast = system: MCF7 breast
UACC-62 melanoma = system: UACC-62 melanoma
OVCAR-5 ovarian = system: OVCAR-5 ovarian
UO-31 renal = system: UO-31 renal
SK-MEL-5 melanoma = system: SK-MEL-5 melanoma
MDA-MB-231 breast = system: MDA-MB-231 breast
KM12 colon = system: KM12 colon
PC-3 prostate = system: PC-3 prostate
HCT-116 colon = system: HCT-116 colon
U251 CNS = system: U251 CNS
BT-549 breast = system: BT-549 breast
SF-539 CNS = system: SF-539 CNS
MDA-N = system: MDA-N
SNB-19 CNS = system: SNB-19 CNS
HOP-92 NSCLC = system: HOP-92 NSCLC
HT29 colon = system: HT29 colon
TK-10 renal = system: TK-10 renal
MDA-MB-435 = system: MDA-MB-435
SF-268 CNS = system: SF-268 CNS
K-562 leukemia = system: K-562 leukemia
HS 578T breast = system: HS 578T breast
UACC-257 melanoma = system: UACC-257 melanoma
SK-MEL-2 melanoma = system: SK-MEL-2 melanoma
M14 melanoma = system: M14 melanoma
HOP-62 NSCLC = system: HOP-62 NSCLC
NCI-H460 lung = system: NCI-H460 lung
CAKI-1 renal = system: CAKI-1 renal
EKVX NSCLC = system: EKVX NSCLC
SK-MEL-28 melanoma = system: SK-MEL-28 melanoma
HCT-15 colon = system: HCT-15 colon
COLO 205 colon = system: COLO 205 colon
MOLT-4 leukemia = system: MOLT-4 leukemia
RPMI-8226 leukemia = system: RPMI-8226 leukemia
LOX IMVI melanoma = system: LOX IMVI melanoma
SR leukemia = system: SR leukemia
MALME-3M melanoma = system: MALME-3M melanoma
NCI-H522 lung = system: NCI-H522 lung
SN12C renal = system: SN12C renal
NCI-H23 lung = system: NCI-H23 lung
NCI/ADR-RES ovarian = system: NCI/ADR-RES ovarian
SF-295 CNS = system: SF-295 CNS
OVCAR-8 ovarian = system: OVCAR-8 ovarian
HL-60(TB) leukemia = system: HL-60(TB) leukemia
A549 NSCLC = system: A549 NSCLC
NCI-H226 lung = system: NCI-H226 lung
RXF 393 renal = system: RXF 393 renal
786-0 renal = system: 786-0 renal
DU-145 prostate = system: DU-145 prostate
HCC-2998 colon = system: HCC-2998 colon
T-47D breast = system: T-47D breast
OVCAR-4 ovarian = system: OVCAR-4 ovarian
ACHN renal = system: ACHN renal
SNB-75 CNS = system: SNB-75 CNS

Molecule `CC(=O)OC(C(=O)O)C(OC(C)=O)C(OC(C)=O)C(OC(C)=O)C(=O)O` (configuration not stated) has a TGI (A498 renal) of over 100 µM, a TGI (SW-620 colon) of over 100 µM and a TGI (CCRF-CEM leukemia) of over 100 µM. The TGI (SK-OV-3 ovarian) was over 100 µM, the TGI (OVCAR-3 ovarian) was over 100 µM and the TGI (IGROV1 ovarian) was over 100 µM. For the same molecule, the TGI (MCF7 breast) was over 100 µM, the TGI (UACC-62 melanoma) was over 100 µM and the TGI (OVCAR-5 ovarian) was over 100 µM. It also gave a TGI (UO-31 renal) of over 100 µM, a TGI (SK-MEL-5 melanoma) of over 100 µM and a TGI (MDA-MB-231 breast) of over 100 µM. It also gave a TGI (KM12 colon) of over 100 µM, a TGI (PC-3 prostate) of over 100 µM and a TGI (HCT-116 colon) of over 100 µM. For the same molecule, the TGI (U251 CNS) was over 100 µM, the TGI (BT-549 breast) was over 100 µM and the TGI (SF-539 CNS) was over 100 µM. The TGI (MDA-N) was over 100 µM, the TGI (SNB-19 CNS) was over 100 µM and the TGI (HOP-92 NSCLC) was over 100 µM. It also gave a TGI (HT29 colon) of over 100 µM, a TGI (TK-10 renal) of over 100 µM and a TGI (MDA-MB-435) of over 100 µM. It also gave a TGI (SF-268 CNS) of over 100 µM, a TGI (K-562 leukemia) of over 100 µM and a TGI (HS 578T breast) of over 100 µM. For the same molecule, the TGI (UACC-257 melanoma) was over 100 µM, the TGI (SK-MEL-2 melanoma) was over 100 µM and the TGI (M14 melanoma) was over 100 µM. The TGI (HOP-62 NSCLC) was over 100 µM, the TGI (NCI-H460 lung) was over 100 µM and the TGI (CAKI-1 renal) was over 100 µM. It also gave a TGI (EKVX NSCLC) of over 100 µM, a TGI (SK-MEL-28 melanoma) of over 100 µM and a TGI (HCT-15 colon) of over 100 µM. It also gave a TGI (COLO 205 colon) of over 100 µM, a TGI (MOLT-4 leukemia) of over 100 µM and a TGI (RPMI-8226 leukemia) of over 100 µM. The TGI (LOX IMVI melanoma) was over 100 µM, the TGI (SR leukemia) was over 100 µM and the TGI (MALME-3M melanoma) was over 100 µM. For the same molecule, the TGI (NCI-H522 lung) was over 100 µM, the TGI (SN12C renal) was over 100 µM and the TGI (NCI-H23 lung) was over 100 µM. It also gave a TGI (NCI/ADR-RES ovarian) of over 100 µM, a TGI (SF-295 CNS) of over 100 µM and a TGI (OVCAR-8 ovarian) of over 100 µM. For the same molecule, the TGI (HL-60(TB) leukemia) was over 100 µM, the TGI (A549 NSCLC) was over 100 µM and the TGI (NCI-H226 lung) was over 100 µM.

For `O=C(NCCCCCCCCNC(=O)Nc1cccc2ccccc12)Nc1cccc2ccccc12`, the TGI (A498 renal) was 34.7 µM, the TGI (SW-620 colon) was 47.3 µM and the TGI (CCRF-CEM leukemia) was 48.7 µM. For the same molecule, the TGI (RXF 393 renal) was 67.6 µM, the TGI (OVCAR-3 ovarian) was over 100 µM and the TGI (IGROV1 ovarian) was over 100 µM. The TGI (786-0 renal) was 24.9 µM, the TGI (DU-145 prostate) was over 100 µM and the TGI (MCF7 breast) was over 100 µM. The TGI (UACC-62 melanoma) was over 100 µM, the TGI (OVCAR-5 ovarian) was over 100 µM and the TGI (UO-31 renal) was 47.5 µM. For the same molecule, the TGI (SK-MEL-5 melanoma) was over 100 µM, the TGI (MDA-MB-231 breast) was 23.3 µM and the TGI (KM12 colon) was over 100 µM. The TGI (PC-3 prostate) was over 100 µM, the TGI (HCT-116 colon) was over 100 µM and the TGI (U251 CNS) was 8.49 µM. The TGI (BT-549 breast) was over 100 µM, the TGI (SF-539 CNS) was 24.6 µM and the TGI (HCC-2998 colon) was over 100 µM. The TGI (MDA-N) was over 100 µM, the TGI (SNB-19 CNS) was over 100 µM and the TGI (HOP-92 NSCLC) was 36 µM. For the same molecule, the TGI (HT29 colon) was over 100 µM, the TGI (TK-10 renal) was over 100 µM and the TGI (MDA-MB-435) was 81.3 µM. The TGI (SF-268 CNS) was 45.8 µM, the TGI (T-47D breast) was over 100 µM and the TGI (K-562 leukemia) was 46.7 µM. The TGI (HS 578T breast) was over 100 µM, the TGI (OVCAR-4 ovarian) was 4.18 µM and the TGI (ACHN renal) was over 100 µM. It also gave a TGI (UACC-257 melanoma) of over 100 µM, a TGI (SK-MEL-2 melanoma) of over 100 µM and a TGI (M14 melanoma) of over 100 µM. It also gave a TGI (HOP-62 NSCLC) of 50.6 µM, a TGI (NCI-H460 lung) of 13.4 µM and a TGI (CAKI-1 renal) of over 100 µM. It also gave a TGI (EKVX NSCLC) of over 100 µM, a TGI (SK-MEL-28 melanoma) of over 100 µM and a TGI (HCT-15 colon) of over 100 µM. For the same molecule, the TGI (COLO 205 colon) was over 100 µM, the TGI (MOLT-4 leukemia) was over 100 µM and the TGI (RPMI-8226 leukemia) was over 100 µM. The TGI (LOX IMVI melanoma) was 59.1 µM, the TGI (SNB-75 CNS) was over 100 µM and the TGI (MALME-3M melanoma) was over 100 µM. The TGI (NCI-H522 lung) was 87 µM, the TGI (SN12C renal) was 59.3 µM and the TGI (NCI-H23 lung) was over 100 µM. The TGI (NCI/ADR-RES ovarian) was over 100 µM, the TGI (SF-295 CNS) was over 100 µM and the TGI (OVCAR-8 ovarian) was over 100 µM. For the same molecule, the TGI (HL-60(TB) leukemia) was over 100 µM and the TGI (A549 NSCLC) was over 100 µM.
